The values that follow come from patent US20060110790A1, “Expression system for large functional proteins” (priority 2002, published 2006).

This experiment addresses T1, individually expressed C half of ABCR (Homo sapiens, UniProt P78363).
T1 construct: The cDNAs coding for the N-half (amino acids 1-1325) and C-half (amino acids 1326-2273) of ABCR; made in house; host or cells: COS-1 cells
T1 sequence (P78363 1326-2273): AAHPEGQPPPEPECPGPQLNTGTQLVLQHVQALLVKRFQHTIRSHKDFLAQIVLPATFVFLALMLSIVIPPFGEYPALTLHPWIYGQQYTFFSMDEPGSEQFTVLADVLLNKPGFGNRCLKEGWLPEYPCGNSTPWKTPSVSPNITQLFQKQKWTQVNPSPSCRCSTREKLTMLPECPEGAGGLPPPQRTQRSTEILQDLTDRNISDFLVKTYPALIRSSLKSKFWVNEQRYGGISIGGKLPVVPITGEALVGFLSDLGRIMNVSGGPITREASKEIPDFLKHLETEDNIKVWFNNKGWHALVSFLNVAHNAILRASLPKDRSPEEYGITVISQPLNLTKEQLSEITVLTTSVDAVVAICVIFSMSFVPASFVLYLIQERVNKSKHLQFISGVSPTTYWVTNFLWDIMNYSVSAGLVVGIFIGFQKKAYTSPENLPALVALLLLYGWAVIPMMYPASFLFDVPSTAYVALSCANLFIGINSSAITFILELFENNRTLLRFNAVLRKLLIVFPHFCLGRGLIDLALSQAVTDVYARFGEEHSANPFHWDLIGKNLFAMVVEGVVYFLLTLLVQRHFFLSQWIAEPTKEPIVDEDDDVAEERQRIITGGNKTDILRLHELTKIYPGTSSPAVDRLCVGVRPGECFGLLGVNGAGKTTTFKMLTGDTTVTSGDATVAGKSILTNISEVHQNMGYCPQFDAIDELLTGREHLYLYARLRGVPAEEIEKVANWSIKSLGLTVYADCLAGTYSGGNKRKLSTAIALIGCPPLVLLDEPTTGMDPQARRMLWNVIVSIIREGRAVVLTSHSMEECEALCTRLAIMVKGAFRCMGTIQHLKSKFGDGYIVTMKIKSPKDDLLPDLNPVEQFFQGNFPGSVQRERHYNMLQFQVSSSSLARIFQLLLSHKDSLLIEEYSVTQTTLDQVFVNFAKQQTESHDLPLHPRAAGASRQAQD
Nature of the experiment: Retinal-stimulated ATPase activity of purified protein reconstituted in lipid vesicles. Type of experiment: biochemical. To be noted: individually expressed in COS-1 cells, 50 μM [α32P]ATP. As to the method:
Membranes (from two 10 cm dishes) were solubilized in 0.5 ml of 1% Triton-X100 in Buffer A (140 mM NaCl, 20 mM Tris-HCl, pH 7.4) for 20 min on ice. For ATPase assays, the membrane preparation step was omitted and the cell suspension was solubilized directly in Buffer B (10 mg/ml soybean phospholipids, 10% glycerol, 1 mM dithiothreitol, 100 mM NaCl, 3 mM MgCl2, 50 mM NaHEPES, pH 7.4) containing 18 mM CHAPS. The supernatant after a 10 min centrifugation at 40,000 rpm (TLA100.4 rotor) was mixed with 50 μl Rim3F4 Sepharose 2B for 1 h at 4° C. The beads were washed 6 times in Buffer A containing 0.2% Triton X-100 or Buffer B containing 10 mM CHAPS and eluted with 4% SDS (for electrophoresis) or 0.2 mg/ml Rim3F4 peptide (for reconstitution and determination of ATPase activity). Purified protein (24 μl) was incubated with 6 μl of 50 mg/ml lipid (1:1 mixture of dioleoylphosphatidylethanolamine and brain polar lipid, by weight) and 3 μl n-octylglucoside for 30 min on ice. The mixture was diluted rapidly with 200 μl of Buffer C (1 mM dithiothreitol, 140 mM NaCl, 25 mM NaHEPES, pH 7.4) and passed through a 200 μl Extracti-gel column (Pierce). The flow-through containing the reconstituted protein was used for determination of ATPase activity.
ATPase activity was measured as described previously (Ahn, J., Wong, J. T., and Molday, R. S. (2000) J Biol Chem 275(27), 20399-405) using 50 μM [α^32P]ATP and thin layer chromatography. The all-trans retinal concentration was determined spectrophotometrically (λ383 nm=42.88 mM^−1 cm^−1). Protein concentration was estimated from the eluate before reconstitution by laser densitometry of Coomassie blue stained gels using bovine serum albumin as a standard. […] Direct protein measurements after reconstitution by densitometry of Western blots was about half of that in the eluate. […]
ATPase Activity of Expressed N and C Halves—The basal and retinal activated ATPase activity of full-length ABCR and the N and C halves individually or co-expressed in COS-1 cells was determined after immunoaffinity purification and reconstitution into lipid vesicles. […]

Each structure is given as a SMILES string.

For `CC1=C(/C=C/C(C)=C/C=C/C(C)=C/C=O)C(C)(C)CCC1` [all-trans retinal], the “stimulation of ATPase activity” value is reported as “not stimulated”.
